Holding throughout (assay): AK assay 384-well format, Prestwick library screening
Assay [1] relates to K. pneumoniae. The assay is classed as cell-based, Klebsiella pneumoniae. The following applies: 50 μM final drug concentration; for fold induction at 50 µM: Klebsiella pneumoniae, 3 h.
Assay [2] deals with E. coli. The assay is classed as cell-based, Escherichia coli. The following applies: 50 μM final drug concentration; for fold induction at 50 µM: Escherichia coli, 3 h.
For assay [3], the system named is A. baumannii strain 98-37-09. The assay is classed as cell-based, Acinetobacter baumannii. To be noted: 50 μM final drug concentration; for fold induction at 50 µM: Acinetobacter baumannii, 983709, 3 h.
Assay [4] relates to E. cloacae. The assay is classed as cell-based, Enterobacter cloacae. To be noted: 50 μM final drug concentration; for fold induction at 50 µM: Enterobacter cloacae, 3 h.
For assay [5], the system named is S. aureus strain USA300-0114. It is filed as cell-based, Staphylococcus aureus. To be noted: 50 μM final drug concentration; for fold induction at 50 µM: Staphylococcus aureus, USA300, 3 h.
The test system of assay [6] is P. aeruginosa. It is filed as cell-based, Pseudomonas aeruginosa. To be noted: 50 μM final drug concentration; for fold induction at 50 µM: Pseudomonas aeruginosa, 3 h.
Assay [7] relates to E. faecium. It is filed as cell-based, Enterococcus faecium. The following applies: 50 μM final drug concentration; for fold induction at 50 µM: Enterococcus faecium, 3 h.
Where [8] appears, read: planktonic K. pneumoniae, cutoff for positive-scoring molecules 3-fold increase, read-out: AK-based Prestwick Library Screening Results, K. pneumoniae (increase in extracellular AK activity).
The mark [9] stands for this setting: planktonic E. coli, cutoff for positive-scoring molecules 3-fold increase, read-out: AK-based Prestwick Library Screening Results, E. coli (increase in extracellular AK activity).
Where [10] appears, read: planktonic A. baumannii, cutoff for positive-scoring molecules 3-fold increase, read-out: AK-based Prestwick Library Screening Results, A. baumannii (increase in extracellular AK activity).
[11] abbreviates: planktonic E. cloacae, cutoff for positive-scoring molecules 3-fold increase, read-out: AK-based Prestwick Library Screening Results, E. cloacae (increase in extracellular AK activity).
Where [12] appears, read: planktonic S. aureus, cutoff for positive-scoring molecules 3-fold increase, read-out: AK-based Prestwick Library Screening Results, S. aureus (increase in extracellular AK activity).
Where [13] appears, read: planktonic P. aeruginosa, cutoff for positive-scoring molecules 3-fold increase, read-out: AK-based Prestwick Library Screening Results, P. aeruginosa (increase in extracellular AK activity).
[14] abbreviates: planktonic E. faecium, cutoff for positive-scoring molecules 3-fold increase, read-out: AK-based Prestwick Library Screening Results, E. faecium (increase in extracellular AK activity).
Setting [15] is: planktonic, cutoff for positive-scoring molecules 3-fold increase, read-out: AK-based Prestwick Library Screening Results, K. pneumoniae (fold increase in extracellular AK activity).
Setting [16] is: planktonic, cutoff for positive-scoring molecules 3-fold increase, read-out: AK-based Prestwick Library Screening Results, E. coli (fold increase in extracellular AK activity).
[17] abbreviates: planktonic, cutoff for positive-scoring molecules 3-fold increase, read-out: AK-based Prestwick Library Screening Results, A. baumannii (fold increase in extracellular AK activity).
Setting [18] is: planktonic, cutoff for positive-scoring molecules 3-fold increase, read-out: AK-based Prestwick Library Screening Results, E. cloacae (fold increase in extracellular AK activity).
Setting [19] is: planktonic, cutoff for positive-scoring molecules 3-fold increase, read-out: AK-based Prestwick Library Screening Results, S. aureus (fold increase in extracellular AK activity).
[20] abbreviates: planktonic, cutoff for positive-scoring molecules 3-fold increase, read-out: AK-based Prestwick Library Screening Results, P. aeruginosa (fold increase in extracellular AK activity).
The mark [21] stands for this setting: planktonic, cutoff for positive-scoring molecules 3-fold increase, read-out: AK-based Prestwick Library Screening Results, E. faecium (fold increase in extracellular AK activity).
Setting [22] is: cutoff for positive-scoring molecules 3-fold increase, read-out: AK-based Prestwick Library Screening Results, K. pneumoniae (fold increase in extracellular AK activity).
Where [23] appears, read: cutoff for positive-scoring molecules 3-fold increase, read-out: AK-based Prestwick Library Screening Results, E. coli (fold increase in extracellular AK activity).
Setting [24] is: cutoff for positive-scoring molecules 3-fold increase, read-out: AK-based Prestwick Library Screening Results, A. baumannii (fold increase in extracellular AK activity).
The mark [25] stands for this setting: cutoff for positive-scoring molecules 3-fold increase, read-out: AK-based Prestwick Library Screening Results, E. cloacae (fold increase in extracellular AK activity).
Setting [26] is: cutoff for positive-scoring molecules 3-fold increase, read-out: AK-based Prestwick Library Screening Results, S. aureus (fold increase in extracellular AK activity).
Where [27] appears, read: cutoff for positive-scoring molecules 3-fold increase, read-out: AK-based Prestwick Library Screening Results, P. aeruginosa (fold increase in extracellular AK activity).
[28] abbreviates: cutoff for positive-scoring molecules 3-fold increase, read-out: AK-based Prestwick Library Screening Results, E. faecium (fold increase in extracellular AK activity).

The results in this text go back to US10004701B2, “Methods and compositions for treating infection” (UNIVERSITY OF ROCHESTER, priority 2012, dated 2018).

Where a name gives a salt, the structure may show the parent alone. Read-outs that look alike come from different tables or passages of the source.

With `CN1C(=O)OC(C)(C)C1=O` [Trimethadione], the fold induction at 50 µM in assay [1] (setting [8]) came to 0.7; in assay [2] (setting [9]), 1; in assay [3] (setting [10]), 0.9; in assay [4] (setting [11]), 1.4; in assay [5] (setting [12]), 0.7; in assay [6] (setting [13]) it was 0.8. The fold induction at 50 µM in assay [7] (setting [14]) turned out to be 0.9.

`COc1cc(NS(=O)(=O)c2ccc(N)cc2)ncn1` [Sulfamonomethoxine]: the fold induction at 50 µM in assay [1] (setting [15]) came out at 0.8; in assay [2] (setting [16]), 0.9; in assay [3] (setting [17]) it was 1.6; in assay [4] (setting [18]), 1.1; in assay [5] (setting [19]), 0.7; in assay [6] (setting [20]) it was 1. Further, in assay [7] (setting [21]), the fold induction at 50 µM is 0.9.

As for `O=c1[nH]c2ccccc2n1CCCN1CCC(n2c(=O)[nH]c3cc(Cl)ccc32)CC1` [Domperidone], the fold induction at 50 µM in assay [1] (setting [8]) stood at 0.6; in assay [2] (setting [9]) it was 0.6; in assay [3] (setting [10]), 0.7; in assay [4] (setting [11]) it was 0.8; in assay [5] (setting [12]) it was 0.8; in assay [6] (setting [13]), 0.6. For the same molecule, the fold induction at 50 µM in assay [7] (setting [14]) came out at 0.9.

As for `COC(=O)[C@H]1[C@H]2C[C@@H]3c4[nH]c5cc(OC)ccc5c4CCN3C[C@H]2C[C@@H](OC(=O)c2cc(OC)c(OC)c(OC)c2)[C@@H]1OC` [Reserpine], the fold induction at 50 µM came out at 1.2 in assay [1] (setting [22]); 1.3 in assay [2] (setting [23]); 1.5 in assay [3] (setting [24]); 1.5 in assay [4] (setting [25]); 1.3 in assay [5] (setting [26]); 1.4 in assay [6] (setting [27]). Moreover, the fold induction at 50 µM in assay [7] (setting [28]) stood at 1.1.

As for `CC(O)(P(=O)(O)O)P(=O)(O)O` [Etidronic acid, disodium salt], the fold induction at 50 µM in assay [1] (setting [22]) was 1; in assay [2] (setting [23]), 1.3; in assay [3] (setting [24]), 1.2; in assay [4] (setting [25]) it was 1.4; in assay [5] (setting [26]), 1.2; in assay [6] (setting [27]), 1.1. In assay [7] (setting [28]), the fold induction at 50 µM came out at 1.

As to `COc1ccccc1N1CCN(CCCNc2cc(=O)n(C)c(=O)n2C)CC1` [Urapidil hydrochloride], the fold induction at 50 µM is 0.7 in assay [1] (setting [15]); 1 in assay [2] (setting [16]); 1 in assay [3] (setting [17]); 1.1 in assay [4] (setting [18]); 0.9 in assay [5] (setting [19]); 1 in assay [6] (setting [20]). The fold induction at 50 µM in assay [7] (setting [21]) came out at 0.9.

Turning to `O=c1ccc2cc(O[C@@H]3O[C@H](CO)[C@@H](O)[C@H](O)[C@H]3O)c(O)cc2o1` [Esculin Hydrate], the fold induction at 50 µM in assay [1] (planktonic, […], read-out: AK-based Prestwick Library Screening Results, K. pneumoniae (fold increase in extracellular AK activity)) came to 0.6; in assay [2] (planktonic, […], read-out: AK-based Prestwick Library Screening Results, E. coli (fold increase in extracellular AK activity)), 0.7; in assay [3] (planktonic, […], read-out: AK-based Prestwick Library Screening Results, A. baumannii (fold increase in extracellular AK activity)), 0.8; in assay [4] (planktonic, […], read-out: AK-based Prestwick Library Screening Results, E. cloacae (fold increase in extracellular AK activity)), 0.9; in assay [5] (planktonic, […], read-out: AK-based Prestwick Library Screening Results, S. aureus (fold increase in extracellular AK activity)) it was 0.7; in assay [6] (planktonic, […], read-out: AK-based Prestwick Library Screening Results, P. aeruginosa (fold increase in extracellular AK activity)), 0.8. Further, the fold induction at 50 µM in assay [7] (planktonic, […], read-out: AK-based Prestwick Library Screening Results, E. faecium (fold increase in extracellular AK activity)) is 0.9.

With `CCC(=O)O[C@]1(C(=O)SCF)[C@H](C)C[C@H]2[C@@H]3C[C@H](F)C4=CC(=O)C=C[C@]4(C)[C@@]3(F)[C@@H](O)C[C@@]21C` [Fluticasone propionate], the fold induction at 50 µM in assay [1] (planktonic K. pneumoniae, positive cutoff 3-fold increase, read-out: AK-based Prestwick library screening result, K. pneumoniae (fold increase in extracellular AK activity)) came out at 0.7; in assay [2] (planktonic E. coli, positive cutoff 3-fold increase, read-out: AK-based Prestwick library screening result, E. coli (fold increase in extracellular AK activity)) it was 0.8; in assay [3] (planktonic A. baumannii, positive cutoff 3-fold increase, read-out: AK-based Prestwick library screening result, A. baumannii (fold increase in extracellular AK activity)), 0.8; in assay [4] (planktonic E. cloacae, positive cutoff 3-fold increase, read-out: AK-based Prestwick library screening result, E. cloacae (fold increase in extracellular AK activity)), 1.5; in assay [5] (planktonic S. aureus, positive cutoff 3-fold increase, read-out: AK-based Prestwick library screening result, S. aureus (fold increase in extracellular AK activity)) it was 0.7; in assay [6] (planktonic P. aeruginosa, positive cutoff 3-fold increase, read-out: AK-based Prestwick library screening result, P. aeruginosa (fold increase in extracellular AK activity)) it was 0.8. The fold induction at 50 µM in assay [7] (planktonic E. faecium, positive cutoff 3-fold increase, read-out: AK-based Prestwick library screening result, E. faecium (fold increase in extracellular AK activity)) came to 0.9.

As for `CC(C)C[C@H]1C(=O)N2CCC[C@H]2[C@]2(O)O[C@](NC(=O)[C@@H]3C=C4c5cccc6[nH]cc(c56)C[C@H]4N(C)C3)(C(C)C)C(=O)N12` [Ergocryptine-alpha], the “AK-based Prestwick Library Screening Results, K. pneumoniae (fold increase in extracellular AK activity)” value in assay [1] (planktonic, […]) stood at 0.5. In assay [2] (planktonic, […]), the “AK-based Prestwick Library Screening Results, E. coli (fold increase in extracellular AK activity)” value turned out to be 0.4. Further, in assay [3] (planktonic, […]), the “AK-based Prestwick Library Screening Results, A. baumannii (fold increase in extracellular AK activity)” value is listed as 0.5. Also, the “AK-based Prestwick Library Screening Results, E. cloacae (fold increase in extracellular AK activity)” value in assay [4] (planktonic, […]) is on record as 0.4. In assay [5] (planktonic, […]), the “AK-based Prestwick Library Screening Results, S. aureus (fold increase in extracellular AK activity)” value is 0.2. Besides, the “AK-based Prestwick Library Screening Results, P. aeruginosa (fold increase in extracellular AK activity)” value in assay [6] (planktonic, […]) was 0.4. Further, in assay [7] (planktonic, […]), the “AK-based Prestwick Library Screening Results, E. faecium (fold increase in extracellular AK activity)” value is on record as 0.7.
